Results from paper PMC12040169 (PLOS Biology, 2025).

Assay: in vitro
Conditions: human, hela cells, % viability

| Compound | viability at 28.5 h, 10 µM |
| --- | --- |
| COC(=O)[C@@H]1Cc2ncn(C(C)C)c2CN1C(=O)CC(C)(C)C [CBK288988] | 88.9% |
| Cc1nc2cc(OCc3nc(C(=O)NC4CCNC4=O)co3)ccc2s1 (stereo not drawn) [CBK307298] | 91.8% |
| COC(=O)c1cnn2c(C)c(Cc3cccc(Br)c3)c(C)nc12 [CBK160273] | 90.4% |
| O=S(=O)(c1cccs1)n1ccc2c(CN3CCCC3)cccc21 [CBK116195T] | 89.3% |
| O=C(NC1CCN(CC(F)(F)F)C1=O)c1ccnc(C2CC2)n1 (stereo not drawn) [CBK306268] | 97% |
| CC(NC(=O)C(C)(C)C)c1nc(-c2cccnc2)n[nH]1 (stereo not drawn) [CBK104007] | 94.2% |
| O=C(NC1Cc2ccccc2C1)c1ccc2ccccc2n1 [CBK200355] | 81.8% |
| CC1(C)Cc2c(ccc3ccccc23)C(NC(Cc2c[nH]c3ccccc23)C(=O)O)=N1 (stereo not drawn) [CBK262569] | 89.4% |
| Cn1nnc2cc(C(=O)N(CCO)c3ccccc3)ccc21 [CBK266522] | 95.5% |
| N#CCn1c(-c2nonc2N)nc2ccccc21 [CBK050974] | 92.3% |
| O=C(O)c1ccc(CSc2nc3ccccc3[nH]2)cc1 [CBK286892] | 82% |
| Fc1ccc(Oc2nccnc2N2CCN(Cc3ccccc3F)CC2)cc1 [CBK083009T] | 91.8% |
| Cc1ccc(-c2nc(C)c(C(=O)Nc3ccc(-n4cncn4)nc3)s2)o1 [CBK297770] | 95.3% |
| O=c1[nH]n(-c2ccccc2)c(=O)n1Cc1ccccc1F [CBK122770] | 95% |
| O=C(CCN1C(=O)COc2ccccc21)Nc1ccnn1Cc1ccccc1Br [CBK296740] | 99.8% |
| CN(Cc1ccccc1N1CCOCC1)C(=O)c1ccc2ncsc2c1 [CBK296692] | 108% |
| CN1CCCc2cc(-c3cncn3CC(=O)NC(C)(C)C)ccc21 [CBK281700] | 95% |
| CCNC(=O)Nc1ncc(-c2ccc(C(C)(C)C)cc2)c2cccnc12 [CBK070632] | 98.6% |
| O=C(CN1CCC2(CC1)CN(C(=O)CO)c1ccccc12)Nc1ccc(F)c(Cl)c1 [CBK131509] | 92.3% |
| O=C1CC(N2CCN(Cc3ccc4c(c3)OCO4)CC2)C(=O)N1c1ccc(Br)cc1 (stereo not drawn) [CBK074544] | 89.9% |
| Cc1oc(-c2ccccc2)nc1C(=O)O [CBK047490] | 98.4% |
| CC(Oc1ccccc1)C(=O)NCCCc1ccccc1 (stereo not drawn) [CBK264060] | 93.4% |

| Compound | viability at 28.5 h, 10 µM |
| --- | --- |
| CCc1ccc(/C=C2/SC(=S)N(CCC(=O)O)C2=O)cc1 [CBK263390] | 120% |
| O=S(=O)(N1CCCCCC1)N1CCN(S(=O)(=O)N2CCCCCC2)CC1 [CBK269210] | 88.3% |
| Cc1ccc(N(CC(=O)Nc2ccccc2F)S(=O)(=O)c2ccc(F)cc2)cc1 [CBK263333] | 91.9% |
| CN(C)C(=O)c1cc(-c2ccccc2)cnc1N(C)S(C)(=O)=O [CBK076473] | 105% |
| O=C(COc1ccccc1)Nc1nccs1 [CBK058018] | 93.4% |
| N#CCCCN1CCN(c2nccnc2OCCN2C(=O)CCC2=O)CC1 [CBK084299] | 102% |
| CCN(C(C)COC)S(=O)(=O)c1ccc(C(F)(F)F)nc1 (stereo not drawn) [CBK304042] | 88.8% |
| CC(=O)Nc1ccc(-c2ccc(=O)n3c2[C@@H]2C[C@@H](CN(C(=O)C(C)(C)C)C2)C3)cc1 [CBK289199] | 112% |
| Cc1ccc(NS(=O)(=O)c2ccc(OCC(=O)Nc3ccccc3C(F)(F)F)cc2)cc1 [CBK269120] | 86.4% |
| Cc1cccc2c3c([nH]c12)C1(CCCN(CCc2ccc([N+](=O)[O-])cc2)C1)NCC3 (stereo not drawn) [CBK039558] | 92.4% |
| Cc1cccc(Cc2cccc(C3CCCN(C(=O)c4ccc(=O)[nH]c4)C3)n2)c1 (stereo not drawn) [CBK286243] | 95.9% |
| CN(C)c1cccc(-c2cnc3[nH]c(=O)n(CCc4ccncc4)c3n2)c1 [CBK064628] | 91.1% |
| O=c1c(-c2ccccc2)c(O)cc(-c2ccccc2)n1Cc1ccccc1 [CBK291188] | 115% |
| COc1cccc(/C=C/c2nc(C#N)c(NCCCN3CCOCC3)o2)c1 [CBK269506] | 107% |
| CN1CCN(c2nc(-c3ccc4c(c3)CCC(=O)N4)cs2)CC1 [CBK304319C] | 80.6% |
| CCNC(=O)c1cn(Cc2ccccc2)nn1 [CBK073904] | 97.9% |
| Cc1ccc2nc(CNC(=O)CN(C)C3CCNCC3)cn2c1 [CBK307228] | 96.6% |
| CCN(Cc1ccccc1)C1CCN(Cc2cccc(OC)c2)CC1 [CBK264654G] | 99.2% |
| CCn1cc(CN2CCN(C(=O)C3C4CCCCC43)CC2)c(C)n1 (stereo not drawn) [CBK281545] | 97.1% |
| COc1cc(CNc2cncc(-c3ccc(N)cc3)n2)cc(OC)c1OC [CBK065483] | 96.5% |
| Cc1cc(COc2cc(C(F)(F)F)ccn2)no1 [CBK115787] | 134% |
| O=C(NCCN1CCC(O)(c2ccc(F)cc2)CC1)c1ccco1 [CBK283166] | 99.3% |

| Compound | viability at 28.5 h, 10 µM |
| --- | --- |
| CC(=O)Nc1cccc(-c2ccc(Nc3cccnc3)nc2)c1 [CBK037703] | 96.7% |
| O=C(CCn1c2ccccc2c2ccccc21)NNC(=S)Nc1ccccc1 [CBK262106] | 94.6% |
| CC(C)C(CO)NC(=O)C1(Cc2ccc(-c3ccc(F)c(F)c3)cc2)CCOCC1 (stereo not drawn) [CBK286525] | 87.7% |
| CC(C)(C)SCCNS(=O)(=O)c1ccc(Cl)c(Cl)c1 [CBK057015] | 92.1% |
| Cc1csc2c(N3CCC(NCCCc4cnn(C)c4)CC3)ncnc12 [CBK307291] | 98.2% |
| CCNc1cncc(-c2ccc(OC)cc2)n1 [CBK065370] | 92.1% |
| O=C(O)c1cccc(NS(=O)(=O)CC(F)(F)F)c1 [CBK155712] | 94.3% |
| O=C(c1ccc(C#CC2(O)CCCCC2)cc1)N1CCN(Cc2ccccc2)CC1 [CBK263094] | 100% |
| O=C1CCCC2=C1C(c1ccccc1O)c1c([nH][nH]c1=O)N2 (stereo not drawn) [CBK288442] | 90.2% |
| c1cncc(-c2nnc([C@H]3CCNC3)o2)c1 [CBK289396] | 103% |
| O=C(Nc1ccc(NC(=O)c2ccccc2O)cc1)c1cnc(-c2ccccc2)c(-c2ccncc2)c1 [CBK037490] | 80.5% |
| Cc1ccnc2nc(C(=O)Nc3ccc4c(c3)CCC4)nn12 [CBK295194] | 74.9% |
| N#Cc1ccc(Oc2ccc(C(=O)NCC(=O)O)cc2)cc1 [CBK286579] | 90.1% |
| CN1CCC(N2CCN(C(=O)Nc3cccnc3)CC2)CC1 [CBK156111] | 93.1% |
| CCOc1cccc(CNc2ccc(O)cc2)c1OCc1ccccc1Cl [CBK074473] | 87.7% |
| CCOC(=O)c1cccc(-c2ccsc2)n1 [CBK149244] | 97.6% |
| COc1cc(C(C)=O)ccc1OCCCN1CCC(O)(C(=O)c2ccc(Cl)c(Cl)c2)CC1 [CBK024875C] | 97.6% |
| O=C(Nc1ccccc1Br)C1CCCC1 [CBK092059] | 111% |
| O=C(NCCc1ccc(Cl)cc1)C1(Cc2cccc(-c3cccnc3)c2)CCOCC1 [CBK285606] | 96.7% |
| Cc1ccc(CC(=O)N2CCc3nn(C(C)C)c(=O)cc3C2)cc1 [CBK284499] | 93.6% |
| O=C(NCc1ccc2c(c1)OCO2)c1ccccc1CCc1ccccc1 [CBK268591] | 107% |
| O=C(Cc1ccc(F)cc1)N1CCC(n2cnc3cccnc32)CC1 [CBK283574] | 91.1% |

| Compound | viability at 28.5 h, 10 µM |
| --- | --- |
| NS(=O)(=O)c1ccc(NC(=O)c2ccc(COc3ccccc3)o2)cc1 [CBK267915] | 104% |
| COc1ccc(CNC(=O)[C@H]2C=CCN2C(=O)C2CC2)cc1 [CBK282326] | 109% |
| Cn1c(=O)c2c(nc(CN3CCCCC3)n2CCN2CCOCC2)n(C)c1=O [CBK269281] | 99.2% |
| CCCn1ncc(C(=O)N2CCC(Oc3ccccc3F)CC2)c1C [CBK282169] | 115% |
| O=C(O)CCC(=O)Nc1ccc(C(=O)O)cc1 [CBK260952] | 96.6% |
| CCN=C(S)NNC(=O)CCn1c2ccccc2c2ccccc21 [CBK262564] | 93.8% |
| COc1ccc2cc(Br)ccc2c1CC(=O)Nc1ccccc1[N+](=O)[O-] [CBK268823] | 95.8% |
| Cc1ccccc1OCCn1c(=N)n(CC(C)C)c2ccccc21 [CBK265392B] | 94.9% |
| Cc1c(NC(=O)CSc2nnc(-c3cccc([N+](=O)[O-])c3)n2C)c(=O)n(-c2ccccc2)n1C [CBK266757] | 95.4% |
| Cc1c(CC(=O)O)c(=O)oc2cc(OCc3ccc(F)cc3)ccc12 [CBK286674] | 103% |
| CCN1CCCCC1CNC(=O)c1n[nH]c2c1CCC2 (stereo not drawn) [CBK282207] | 96.2% |
| C[C@@H](Nc1nc(-c2ccco2)cnc1N)c1ccccc1 [CBK063737] | 108% |
| CC(Nc1ccc2[nH]c(=O)[nH]c2c1)C(=O)N1CCN(c2ccccc2)CC1 (stereo not drawn) [CBK296748] | 99.4% |
| CCCN(C(=O)CCc1ccc(C)cc1C)C1CCNCC1 [CBK304302C] | 109% |
| CCN(CC(=O)O)S(=O)(=O)c1cc(C)ccc1OC [CBK268694] | 98.7% |
| CCn1c(CN2CC(n3nc(C)cc3C)C2)nc2c(F)cccc21 [CBK306220] | 82% |
| CCCNCCc1ccc2c(c1)C(=O)N(Cc1ccc(OC)cc1)C2=O [CBK011826C] | 87.3% |
| COc1ccc(-c2ccc(CCC(=O)O)n2Cc2ccco2)cc1 [CBK265945] | 92.6% |
| COC(=O)/C=C/c1cn(C2CC(O)C(CO)O2)c(=O)[nH]c1=O (stereo not drawn) [CBK201244] | 105% |
| O=C(Nc1ccc(Cl)c(C(=O)O)c1)c1cccc(-n2cnnc2)c1 [CBK270016] | 86.5% |
| COc1ccc(CN(C)C2CCOCC2)cc1Cn1cncn1 [CBK306728] | 93.9% |

Same assay, conditions: human, hela cells, % viability, bulk resorufin, single well

| Compound | viability at 28.5 h, 10 µM |
| --- | --- |
| CCOc1ccc(N2C(=O)NC(=O)/C(=C\NCCc3c[nH]c4ccccc34)C2=O)cc1 [CBK261125] | 104% |
| CC1CCN(c2ccc(C(C)NC(=O)CCC3C(=O)NC(=O)NC3=O)cc2)CC1 (stereo not drawn) [CBK285849] | 96.9% |
| O=P(Nc1ccc(Cl)c(Cl)c1)(Nc1ccc(Cl)c(Cl)c1)Oc1ccc(Cl)cc1 [CBK263487] | 93.2% |
